Measurements: patent US11450409B2, “Determination of NFkB pathway activity using unique combination of target genes” (InnoSIGN B.V., priority 2015, dated 2022)

Experiments:
[1] = system: NFkB cellular signaling pathway; conditions: reported in literature (Schmelzer and Döring 2010), human THP-1 monocytes; cited from earlier work
[2] = system: NFkB cellular signaling pathway; assay: NFkB pathway activity prediction, Bayesian network model (evidence curated list), THP-1 monocytic cells; type: cell-based, human; conditions: THP-1 cells treated with CoQ10 and stimulated with LPS (group 3)
Source text: (§1) Herein, an exemplary Bayesian network model as shown in FIG. 2 was first used to model the transcriptional program of the NFkB cellular signaling pathway in a simple manner. The model consists of three types of nodes: (a) a transcription factor (TF) element (with states “absent” and “present”) in a first layer 1; (b) target genes TG1, TG2, TGn (with states “down” and “up”) in a second layer 2, and; (c) measurement nodes linked to the expression levels of the target genes in a third layer 3. These can be microarray probesets PS1,1, PS1,2, PS1,3, PS2,1, PSn,1, PSn,m (with states “low” and “high”), as preferably used herein, but could also be other gene expression measurements such as RNAseq or RT-qPCR.
A suitable implementation of the mathematical model, herein, the exemplary Bayesian network model, is based on microarray data. The model describes (i) how the expression levels of the target genes depend on the activation of the TF element, and (ii) how probeset intensities, in turn, depend on the expression levels of the respective target genes. For the latter, probeset intensities may be taken from fRMA pre-processed Affymetrix HG-U133Plus2.0 microarrays, which are widely available from the Gene Expression Omnibus (GEO, www.ncbi.nlm.nih.gov/geo) and ArrayExpress (www.ebi.ac.uk/arrayexpress). […]

[3] = system: NFkB cellular signaling pathway; assay: NFkB pathway activity prediction, Bayesian network model (evidence curated list, 19, 13 and 7 target genes shortlists), NHBE samples from E-MTAB-1312 stimulated with TNFα; type: cell-based, human; conditions: NHBE cells
Source text: as §1
A suitable implementation of the mathematical model, herein, the exemplary Bayesian network model, is based on microarray data. The model describes (i) how the expression levels of the target genes depend on the activation of the TF element, and (ii) how probeset intensities, in turn, depend on the expression levels of the respective target genes. For the latter, probeset intensities may be taken from fRMA pre-processed Affymetrix HG-U133Plus2.0 microarrays, which are widely available from the Gene Expression Omnibus (GEO, www.ncbi.nlm.nih.gov/geo) and ArrayExpress (www.ebi.ac.uk/arrayexpress).
Once the exemplary Bayesian network model is built and calibrated (see below), the model can be used on microarray data of a new sample by entering the probeset measurements as observations in the third layer 3, and inferring backwards in the model what the probability must have been for the TF element to be “present”. Here, “present” is considered to be the phenomenon that the TF element is bound to the DNA and is controlling transcription of the cellular signaling pathway's target genes, and “absent” the case that the TF element is not controlling transcription. […]

[4] = system: NFkB cellular signaling pathway; assay: NFkB pathway activity prediction, linear model (evidence curated list), NHBE samples from E-MTAB-1312 stimulated with TNFα; type: cell-based, human; conditions: NHBE cells
Source text: Further to the exemplary Bayesian network model described above, an exemplary linear model was used to model the transcriptional program of the NFkB cellular signaling pathway in a simple manner. The structure of the model corresponded to the one shown in FIG. 3 of the published international patent application WO 2014/102668 A2 (“Assessment of cellular signaling pathway activity using linear combination(s) of target gene expressions”). More specifically, the exemplary linear model consisted of a TF node, a layer of target gene expression and a layer of mRNA expression levels and made use of continuous expression data, all target genes from the evidence curated list of target genes (see Table 3) with all probesets included and without the use of a pseudocount.
In the diagram, the vertical axis indicates the activity score, wherein positive values correspond to an active NFkB cellular signaling pathway and negative values correspond to a passive NFkB cellular signaling pathway. NHBE cell lines were unstimulated or stimulated with different TNFα concentrations for different timings. All unstimulated healthy cells (groups 1 to 4) are correctly predicted to have a passive NFkB cellular signaling pathway. […]

[5] = system: NFkB cellular signaling pathway; assay: NFkB pathway activity prediction, Bayesian network model (broad literature list), NHBE samples from E-MTAB-1312 stimulated with TNFα; type: cell-based, human; conditions: NHBE cells
Source text: The list of target genes of the NFkB cellular signaling pathway constructed based on literature evidence following the procedure as described herein (“evidence curated list of target genes”, see Table 3) is compared here with a “broad literature list” of putative target genes of the NFkB cellular signaling pathway constructed not following above mentioned procedure. The alternative list is a compilation of genes attributed to responding to activity of the NFkB cellular signaling pathway provided within Thomson-Reuters's Metacore (last accessed Sep. 6, 2013). This database was queried for genes that are transcriptionally regulated directly downstream of the family of NFkB proteins, i.e., NFKB1 or p50/p105, NFKB2 or p52/p100, RELA or p65, REL, and RELB. […] A further selection was made based on the number of publication references supporting the attributed transcriptional regulation of the respective gene by the NFkB family. Genes that had ten or more references were selected for the broad literature list. In other words, no manual curation of the references and no calculation of an evidence score based on the experimental evidence was performed. […] The expression of the genes was measured by 56 probesets on the Affymetrix HG-U133Plus2.0 microarray platform which were selected using the Bioconductor plugin of R and one manually added probeset for DEFB4A, see Table 7. […]

[6] = 0.5 h stimulation, all TNFα concentrations (groups 5, 9, 13)

Row | Compound | effect on NFkB cellular signaling pathway activity [1] | predicted NFkB cellular signaling pathway activity [2] | predicted NFkB cellular signaling pathway activity ([3]; 2 and 4 hour stimulation, all concentrations tested) | predicted NFkB cellular signaling pathway activity ([3]; 0.5 h stimulation, low/medium/high TNFα (groups 5, 9, 13)) | predicted NFkB cellular signaling pathway activity ([3]; 24 hours stimulation (groups 8, 12, 16)) | predicted NFkB cellular signaling pathway activity score [4, 6] | predicted NFkB cellular signaling pathway activity score ([4]; stimulation times of 2 to 24 hours) | predicted NFkB cellular signaling pathway activity [5, 6] | predicted NFkB cellular signaling pathway activity ([5]; stimulation times of 2-24 hours)
1 | COC1=C(OC)C(=O)C(C/C=C(\C)CC/C=C(\C)CC/C=C(\C)CC/C=C(\C)CC/C=C(\C)CC/C=C(\C)CC/C=C(\C)CC/C=C(\C)CC/C=C(\C)CCC=C(C)C)=C(C)C1=O [CoQ10, Coenzyme Q10] | limited | high predicted NFkB cellular signaling pathway activities | – | – | – | – | – | – | –
2 | TNFα | – | – | full-blown NFkB cellular signaling pathway activity | too short for the NFkB cellular signaling pathway to become active | appears to lower the NFkB cellular signaling pathway activity | too short for the NFkB cellular signaling pathway to become active | resulted in an active NFkB cellular signaling pathway | too short for the NFkB cellular signaling pathway to become active | resulted in an active NFkB cellular signaling pathway
